Measurements from patent US11020378B2, “Compounds, compositions and methods for treating insulin resistance” (UNIVERSITE PARIS DESCARTES, priority 2017, dated 2021).

How the values were obtained:
IR-Grb14 interaction = target: T1, IR-Grb14 interaction (Homo sapiens, UniProt P06213); assay: Co-immunoprecipitation of IR-Luc with Grb14-YFP in a cell-free system (Western blot); assay type: binding; details: for reduction of the amount of co-precipitated IR-Luc: dose series, results not shown
T1 construct: a vector encoding the insulin receptor fused to the luciferase (IR-Luc); made in house; host or cells: HEK293T (transfected); IR-Luc was partially purified on wheat germ lectin sepharose; Grb14-YFP was used as crude lysate
Method: The inhibitory effect of the compounds according to the invention on the IR-Grb14 interaction has been confirmed in co-immunoprecipitation experiments in a cell-free system. IR-Luc extracts, stimulated or not by insulin, […] before being incubated with the cellular extract containing the fusion protein Grb14-YFP for 40 minutes. Immunoprecipitation against YFP allows to analyze by Western blot the amount of receptor that has remained associated with the Grb14 protein.

IRTK-Grb14 interaction = target: T2, IRTK-Grb14 interaction (Homo sapiens, UniProt P06213); assay: Co-immunoprecipitation of IRTK48-RLuc with Grb14-YFP in co-transfected HEK 293T cells; assay type: cell-based; details: 50 μM; 4 hours; no insulin
T2 construct: a construct bearing only the tyrosine kinase domain of the luciferase-fused receptor (IRTK48-RLuc); expressed in transfected cells; host or cells: HEK 293T
Method: HEK 293T cells co-transfected with a construct bearing only the tyrosine kinase domain of the luciferase-fused receptor (IRTK48-RLuc) and the Grb14 protein fused to YFP were incubated for 4 hours in the presence of compounds according to the invention. In the absence of α subunits, the tyrosine kinase domain of the insulin receptor spontaneously autophosphorylates, so it is not necessary to add insulin to stimulate the IRTK-Grb14 interaction.

HEK293T cells = assay: Growth and survival of HEK293T cells (resazurin fluorescence, 72 h); assay type: cell-based; details: 0.1% or 10% serum
Method: In order to study the effect of the compound of Formula (Ia) on cell growth and survival, HEK293T cells were cultured for 72 h at different serum concentrations (0.1%, 1%, 10%), in the absence or presence of compounds of Formula (Ia) (50 or 100 μM). The fluorescence of the cells was measured before and after treatment using a reagent containing resazurin. Since the intensity of fluorescence is correlated with the number of living cells, cell growth is estimated by relating the fluorescence measured at 72 h of treatment to that measured at t0. The presence of serum promotes cell growth. Thus, after 72 h, an increase in the cell population of 7 times at 0.1% of serum and of 10 times at 1 or 10% of serum is observed.

[1] = tested on: PEPCK and G6Pase expression; assay: Expression of neoglucogenesis genes in hepatocytes in primary culture (RT-qPCR); assay type: cell-based, mice; details: 50 μM; glucagon 10 nM; absence of insulin; 8 h
Method: FIG. 6, the effect of the compound of Formula (Ia) according to the invention (black bars) on the expression of insulin target genes, PEPCK (FIG. 6A) and G6Pase (FIG. 6B), involved in the neoglucogenesis pathway. Hepatocytes in primary culture are cultured for 8 h in the presence of compounds of Formula (Ia) (50 μM), insulin (1 nM) and glucagon (pre-incubation 1 h at 10 nM). The relative quantification of mRNAs is performed by RT-qPCR. The values are related to the quantification of the 18S gene in the same sample in order to normalize the results. The results are the average of 3 to 5 independent experiments (*p<0.05, **p<0.01, by Anova followed by a Newman-Keuls test).
To study the inhibitory effect of insulin on neoglucogenesis gene expression, hepatocytes from mice in primary culture were pre-incubated with 10 nM glucagon.

T1 sequence (P06213 763-1382 limits assumed): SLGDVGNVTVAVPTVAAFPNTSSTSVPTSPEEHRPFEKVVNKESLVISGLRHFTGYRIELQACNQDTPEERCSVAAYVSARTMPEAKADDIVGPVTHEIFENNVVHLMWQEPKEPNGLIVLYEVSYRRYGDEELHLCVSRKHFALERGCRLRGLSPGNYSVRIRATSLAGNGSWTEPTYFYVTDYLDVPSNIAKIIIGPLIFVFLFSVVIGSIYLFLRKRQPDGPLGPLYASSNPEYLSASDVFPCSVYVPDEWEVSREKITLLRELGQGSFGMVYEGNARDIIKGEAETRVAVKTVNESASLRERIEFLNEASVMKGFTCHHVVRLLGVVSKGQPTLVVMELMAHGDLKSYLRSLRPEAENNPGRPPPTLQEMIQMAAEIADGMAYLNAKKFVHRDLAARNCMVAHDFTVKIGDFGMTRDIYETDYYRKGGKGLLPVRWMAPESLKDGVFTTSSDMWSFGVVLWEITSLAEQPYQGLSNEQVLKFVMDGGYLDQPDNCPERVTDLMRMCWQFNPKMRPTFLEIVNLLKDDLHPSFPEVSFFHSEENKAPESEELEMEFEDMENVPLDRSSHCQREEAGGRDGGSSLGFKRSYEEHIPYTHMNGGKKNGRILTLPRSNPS
T1 sequence (P06213 28-758 partner limits assumed): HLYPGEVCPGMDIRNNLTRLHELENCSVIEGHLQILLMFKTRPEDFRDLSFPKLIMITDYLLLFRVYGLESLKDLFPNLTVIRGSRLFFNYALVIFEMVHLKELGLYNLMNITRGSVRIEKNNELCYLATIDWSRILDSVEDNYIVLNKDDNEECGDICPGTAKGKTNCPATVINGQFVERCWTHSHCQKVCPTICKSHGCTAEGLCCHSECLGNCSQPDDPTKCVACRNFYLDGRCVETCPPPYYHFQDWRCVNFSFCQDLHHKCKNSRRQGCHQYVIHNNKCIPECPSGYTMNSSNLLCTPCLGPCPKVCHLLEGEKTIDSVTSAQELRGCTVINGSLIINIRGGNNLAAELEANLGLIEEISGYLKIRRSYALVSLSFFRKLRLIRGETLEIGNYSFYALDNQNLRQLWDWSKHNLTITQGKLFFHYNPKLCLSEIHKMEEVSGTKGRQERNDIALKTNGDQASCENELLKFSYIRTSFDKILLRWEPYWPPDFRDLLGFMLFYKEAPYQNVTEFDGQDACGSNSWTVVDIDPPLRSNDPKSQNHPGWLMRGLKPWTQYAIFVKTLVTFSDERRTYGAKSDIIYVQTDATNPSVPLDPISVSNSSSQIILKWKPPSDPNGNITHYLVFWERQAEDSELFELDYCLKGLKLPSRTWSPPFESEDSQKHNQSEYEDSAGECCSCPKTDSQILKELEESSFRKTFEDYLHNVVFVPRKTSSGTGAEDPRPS
T2 sequence (P06213 1023-1298 limits assumed): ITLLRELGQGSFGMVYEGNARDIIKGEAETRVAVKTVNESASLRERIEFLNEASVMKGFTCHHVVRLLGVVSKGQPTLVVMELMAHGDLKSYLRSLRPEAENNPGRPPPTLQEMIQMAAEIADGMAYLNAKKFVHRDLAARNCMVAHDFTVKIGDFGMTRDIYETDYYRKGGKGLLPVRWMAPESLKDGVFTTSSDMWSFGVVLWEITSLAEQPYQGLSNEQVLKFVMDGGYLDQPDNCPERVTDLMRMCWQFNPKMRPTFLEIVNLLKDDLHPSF

Compound: Cc1ccc(/C=C/C(=O)Nc2ccc(S(=O)(=O)Nc3onc(C)c3C)cc2)o1 [Ia]
- reduction of the amount of co-precipitated IR-Luc (IR-Grb14 interaction; 25 μM): 20%
- reduction of the amount of co-precipitated IR-Luc (IR-Grb14 interaction; 50 μM): 50%
- inhibition at 50 µM (IR-Grb14 interaction; 50 μM, in the presence of insulin, read-out: reduction of the amount of insulin receptors associated with the Grb14 protein): 60%
- reduction of the amount of tyrosine kinase domain of the insulin receptor co-immunoprecipitated with the Grb14 protein (IRTK-Grb14 interaction): 75%
- cell growth rate (HEK293T cells; 50 μM): does not alter
- cell growth rate (HEK293T cells; 100 μM): does not alter
- decrease in glucagon-induced G6Pase expression [1]: about 20%
- decrease in glucagon-induced PEPCK expression [1]: about 20%
